Assay results as given in US7264947B2, “Activity dependent neurotrophic factor III (ADNF III)” (United States of America, as represented by the Secretary …, priority 1997, dated 2007).
“Also recorded” adds a separate entry of the source.

How the values were obtained:
[1] = system: cerebral cortical cultures; assay: neuroprotection against gp120 toxicity in cerebral cortical cultures; assay type: cell-based, newborn rats; conditions: 1 pM gp120 (RFII isolate)
AF64A-treated animals = assay: water maze, learning and memory deficiencies associated with cholinergic blockade (AF64A); assay type: in vivo; conditions: rats, cholinotoxin AF64A, peptide intranasally; listed as NAPVSIPQ
Procedure: Protection against learning and memory deficiencies associated with cholinergic blockade was evaluated. Cholinergic blockade was obtained in rats by administration of the cholinotoxin AF64A, NAPVSIPQ (SEQ ID NO:6), which was administered intranasally and the water maze experiments were performed as before (Gozes et al., Proc. Natl. Acad. Sci. USA 93:427-432 (1996), the teachings of which are incorporated herein by reference).
The ability of ADNF III polypeptides to protect against learning and memory deficiencies associated with cholinergic blockade was also investigated. Cholinergic blockade was obtained in rats by administration of the cholinotoxin AF64A, NAPVSIPQ (SEQ ID NO:6) (termed NAP in FIG. 8). NAPVSIPQ (SEQ ID NO:6) was administered intranasally and the water maze experiments were performed as before (Gozes et al., Proc. Natl. Acad. Sci. USA 93:427-432 (1996)).

ApoE-deficient mice = assay: water maze, ApoE-deficient and control mice after treatment for the first two weeks of life; assay type: in vivo
Procedure: Two daily water maze trials were performed on three week-old animals. Groups tested were: 1. control animals injected with vehicle for the first two weeks of life (35 animals of six different litters, with 5-7 animals from each litter, open circles); 2. ApoE-deficient animals injected with vehicle for the first two weeks of life (18 animals derived from three different litters, with 5-7 pups per litter, closed circles); 3. control animals chronically treated with NAP for the first two weeks of life (14 animals derived from three different litters, open triangles); and 4. ApoE-deficient mice chronically treated with NAP for the first two weeks of life (19 animals derived from three different litters, open rectangles). The figure depicts latency (of the second daily trial), measured in seconds, to reach the hidden platform 0.5 min. after being on it. Tests were performed over five consecutive days, and then with a two day delay tested for one additional day. ApoE=ApoE-deficient animals. There was no differences between animals treated with vehicle and untreated animals (data not shown). Statistical comparisons shown were made: 1. between ApoE-deficient and controls; 2. between ApoE-treated with NAP and ApoE-treated with vehicle; and 3. between control-treated with NAP and control-treated with vehicle (*P<0.001; **P<0.03; ***P<0.002). […]

Asn-Ala-Pro-Val-Ser-Ile-Pro-Gln [NAP] was tested. Which “concentrations of significant neuroprotection against gp120” value [1] did it give?
Its value is 10^−15-10^−10 M.

What about the “learning and memory in water maze” value (AF64A-treated animals) of the same substance?
The value was “showed improvement in their learning and memory capacities and behaved as control animals”.

And the “water maze performance (latency to hidden platform, second daily trial)” value (ApoE-deficient mice; ApoE-deficient mice, treated first two weeks of life, tested from 21 days)?
Its value is “performed as well as control animals; also recorded: ameliorated”.

And the “water maze performance (latency to hidden platform, second daily trial)” value (ApoE-deficient mice; control animals chronically treated for the first two weeks of life)?
The value was “improved their performance”.
